# Laboratory results as given in BigSolDB 2.1.
smiles,measurement,setting,value
Oc1ccc([C@@H]2COc3cc(O)ccc3C2)cc1,solubility (mole fraction),"in isobutanol, 273.15 K",0.0174
same,solubility (mole fraction),"in isobutanol, 278.15 K",0.02
same,solubility (mole fraction),"in isobutanol, 283.15 K",0.0229
same,solubility (mole fraction),"in isobutanol, 288.15 K",0.0261
same,solubility (mole fraction),"in isobutanol, 293.15 K",0.0296
same,solubility (mole fraction),"in isobutanol, 298.15 K",0.0334
same,solubility (mole fraction),"in isobutanol, 303.15 K",0.0376
same,solubility (mole fraction),"in isobutanol, 308.15 K",0.0421
same,solubility (mole fraction),"in isobutanol, 313.15 K",0.047
same,solubility (mole fraction),"in isobutanol, 318.15 K",0.0523
same,solubility (mole fraction),"in isobutanol, 323.15 K",0.058
same,solubility (mole fraction),"in isobutanol, 328.15 K",0.0641
same,solubility (mole fraction),"in isobutanol, 333.15 K",0.0706
same,solubility (mole fraction),"in isopentanol, 273.15 K",0.0226
same,solubility (mole fraction),"in isopentanol, 278.15 K",0.0261
same,solubility (mole fraction),"in isopentanol, 283.15 K",0.0301
same,solubility (mole fraction),"in isopentanol, 288.15 K",0.0345
same,solubility (mole fraction),"in isopentanol, 293.15 K",0.0394
same,solubility (mole fraction),"in isopentanol, 298.15 K",0.0447
same,solubility (mole fraction),"in isopentanol, 303.15 K",0.0506
same,solubility (mole fraction),"in isopentanol, 308.15 K",0.057
same,solubility (mole fraction),"in isopentanol, 313.15 K",0.0639
same,solubility (mole fraction),"in isopentanol, 318.15 K",0.0715
same,solubility (mole fraction),"in isopentanol, 323.15 K",0.0797
same,solubility (mole fraction),"in isopentanol, 328.15 K",0.0885
same,solubility (mole fraction),"in isopentanol, 333.15 K",0.098
same,solubility (mole fraction),"in isopropanol, 273.15 K",0.0295
same,solubility (mole fraction),"in isopropanol, 278.15 K",0.035
same,solubility (mole fraction),"in isopropanol, 283.15 K",0.0412
same,solubility (mole fraction),"in isopropanol, 288.15 K",0.0482
same,solubility (mole fraction),"in isopropanol, 293.15 K",0.0561
same,solubility (mole fraction),"in isopropanol, 298.15 K",0.065
same,solubility (mole fraction),"in isopropanol, 303.15 K",0.0749
same,solubility (mole fraction),"in isopropanol, 308.15 K",0.086
same,solubility (mole fraction),"in isopropanol, 313.15 K",0.0982
same,solubility (mole fraction),"in isopropanol, 318.15 K",0.112
same,solubility (mole fraction),"in isopropanol, 323.15 K",0.127
same,solubility (mole fraction),"in isopropanol, 328.15 K",0.143
same,solubility (mole fraction),"in isopropanol, 333.15 K",0.161
same,solubility (mole fraction),"in n-butanol, 273.15 K",0.0242
same,solubility (mole fraction),"in n-butanol, 278.15 K",0.0284
same,solubility (mole fraction),"in n-butanol, 283.15 K",0.0331
same,solubility (mole fraction),"in n-butanol, 288.15 K",0.0384
same,solubility (mole fraction),"in n-butanol, 293.15 K",0.0442
same,solubility (mole fraction),"in n-butanol, 298.15 K",0.0508
same,solubility (mole fraction),"in n-butanol, 303.15 K",0.0581
same,solubility (mole fraction),"in n-butanol, 308.15 K",0.0661
same,solubility (mole fraction),"in n-butanol, 313.15 K",0.0749
same,solubility (mole fraction),"in n-butanol, 318.15 K",0.0846
same,solubility (mole fraction),"in n-butanol, 323.15 K",0.0951
same,solubility (mole fraction),"in n-butanol, 328.15 K",0.107
same,solubility (mole fraction),"in n-butanol, 333.15 K",0.119
same,solubility (mole fraction),"in n-heptane, 273.15 K",0.000431
same,solubility (mole fraction),"in n-heptane, 278.15 K",0.00049
same,solubility (mole fraction),"in n-heptane, 283.15 K",0.000554
same,solubility (mole fraction),"in n-heptane, 288.15 K",0.000624
same,solubility (mole fraction),"in n-heptane, 293.15 K",0.000699
same,solubility (mole fraction),"in n-heptane, 298.15 K",0.000781
same,solubility (mole fraction),"in n-heptane, 303.15 K",0.00087
same,solubility (mole fraction),"in n-heptane, 308.15 K",0.000964
same,solubility (mole fraction),"in n-heptane, 313.15 K",0.00107
same,solubility (mole fraction),"in n-heptane, 318.15 K",0.00117
same,solubility (mole fraction),"in n-heptane, 323.15 K",0.00129
same,solubility (mole fraction),"in n-heptane, 328.15 K",0.00141
same,solubility (mole fraction),"in n-heptane, 333.15 K",0.00155
same,solubility (mole fraction),"in n-pentanol, 273.15 K",0.0235
same,solubility (mole fraction),"in n-pentanol, 278.15 K",0.0273
same,solubility (mole fraction),"in n-pentanol, 283.15 K",0.0317
same,solubility (mole fraction),"in n-pentanol, 288.15 K",0.0365
same,solubility (mole fraction),"in n-pentanol, 293.15 K",0.0419
same,solubility (mole fraction),"in n-pentanol, 298.15 K",0.0478
same,solubility (mole fraction),"in n-pentanol, 303.15 K",0.0544
same,solubility (mole fraction),"in n-pentanol, 308.15 K",0.0616
same,solubility (mole fraction),"in n-pentanol, 313.15 K",0.0695
same,solubility (mole fraction),"in n-pentanol, 318.15 K",0.078
same,solubility (mole fraction),"in n-pentanol, 323.15 K",0.0874
same,solubility (mole fraction),"in n-pentanol, 328.15 K",0.0975
same,solubility (mole fraction),"in n-pentanol, 333.15 K",0.108
